Source: US20130210846A1, “USE OF NOVEL PAN-CDK INHIBITORS FOR TREATING TUMORS” (BAYER INTELLECTUAL PROPERTY GMBH, priority 2010, published 2013)

Assays:
[1] = tested on: A375; test: Proliferation assay A375; type: cell-based; conditions: Homo sapiens, A-375, 96 h; A375, skin: melanoma; 4 days, crystal violet
Protocol: (§1) Cultivated human tumor cells (originally obtained from ATCC, HeLa-MaTu and HeLa-MaTu-ADR, originally obtained from Epo GmbH, Berlin, Germany) were plated at a density of 1000 to 5000 cells/measuring point, depending on the growth rate of the cell line, in a 96-well multititer plate in 200 μl of growth medium (DMEM/HAMS F12, 2 mM L-glutamine, 10% fetal calf serum). After 24 hours the cells of one plate (zero-point plate) were stained with crystal violet (see below), whereas the medium of the other plates was replaced with fresh culture medium (200 μl), to which the test substances had been added at various concentrations (0 μM, and in the range 0.01-30 μM; the final concentration of the solvent dimethyl sulfoxide was 0.5%). The cells were incubated for 4 days in the presence of the test substances. Cellular proliferation was determined by staining the cells with crystal violet: the cells were fixed by adding 20 μl/measuring point of an 11% glutaraldehyde solution for 15 min at room temperature. […] The extinction was determined photometrically at a wavelength of 595 nm. The percentage change in cell growth was calculated by standardization of the measured values to the extinction values of the zero-point plate (=0%) and the extinction of the untreated (0 μM) cells (=100%). […] The IC50 values were determined by means of a 4-parameter fit using the company's own software. […]

[2] = tested on: MDA-MB 231; test: Proliferation assay MDA-MB 231; type: cell-based; conditions: Homo sapiens, 96 h; MDA-MB 231, estrogen receptor-negative mamma carcinoma; 4 days, crystal violet
Protocol: as §1

[3] = tested on: A2780; test: Proliferation assay A2780; type: cell-based; conditions: Homo sapiens, 96 h; A2780, ovarial carcinoma; 4 days, crystal violet
Protocol: as §1

[4] = tested on: HCT116 human colorectal tumor cells; test: HCT116 human colorectal xenograft model; type: in vivo, female NMRI nude mice
Excerpt: (§2) Tumor cells grown in cell culture were implanted subcutaneously in the flank of female or male NMRI nude mice. The treatment was started as soon as the tumors had grown to a size of approx. 20 mm^2 The study was ended as soon as the tumors in one of the groups reached a size of approx. 150 mm^2.
(§3) Vehicle group: treatment with solubilizer (40% PEG400/60% water)
(§4) The studies were designed for determining the initial response of the human tumor model to the treatment with the Exemplary compound 2-SI-2. Tumor growth inhibition in percent (TGI) was either calculated at the end of the studies from the tumor weights (TGITW) using the formula 100×[1−(tumor weight of the treatment group/tumor weight of the vehicle group)], or on the day the vehicle group had to be ended from the tumor areas (TGITA) using the formula 100×[1−(tumor area of the treatment group on the day of the measurement−tumor area of the treatment group prior to treatment)/(tumor area of the vehicle group on the day of the measurement−tumor area of the vehicle group prior to treatment)]. In the case of a tumor growth inhibition of more than 50%, the treatment was considered to have been effective.
Efficacy in the HCT116 human colorectal xenograft model.
HCT116 human colorectal tumor cells implanted into female NMRI nude mice.
• a) 0.15 mg/ml, 0.20 mg/ml of Example 2-SI-2 in 40% (v/v) PEG 400 in water • b) 0.20 mg/ml, 0.25 mg/ml of Example 2-SI-2 in 40% (v/v) PEG 400 in water • c) 0.40 mg/ml, 0.50 mg/ml, 0.60 mg/ml of Example 2-SI-2 in 40% (v/v) PEG 400 in water
• a) 1.5 and 2.0 mg/kg (4.5 and 6.0 mg/m^2), 1× per day. • b) 2.0 and 2.5 mg/kg (6.0 and 7.5 mg/m^2), 2× per day on 2 successive days, followed by 5 treatment-free days. • c) 4.0 to 6.0 mg/kg (12 to 18 mg/m^2), 1× per day on 2 successive days, followed by 5 treatment-free days.

[5] = tested on: NCI-H69 human small-cell lung tumor cells; test: NCI-H69 human small-cell lung tumor model; type: in vivo, female NMRI nude mice
Excerpt: as §2, §3, §4
Efficacy in the NCI-H69 human small-cell lung tumor model.
NCI-H69 human small-cell lung tumor cells implanted into female NMRI nude mice. […]

[6] = tested on: NCI-H526 human small-cell lung tumor cells; test: NCI-H526 human small-cell lung tumor model; type: in vivo, female NMRI nude mice
Excerpt: as §2, §3, §4
Efficacy in the NCI-H526 human small-cell lung tumor model.
NCI-H526 human small-cell lung tumor cells implanted into female NMRI nude mice.
• a) 0.20 mg/ml of Example 2-SI-2 in 40% (v/v) PEG 400 in water • b) 0.20 mg/ml of Example 2-SI-2 in 40% (v/v) PEG 400 in water • c) 0.15 mg/ml of Example 2-SI-2 in 40% (v/v) PEG 400 in water • d) 0.17 mg/ml of Example 2-SI-2 in 40% (v/v) PEG 400 in water
• a) 2.0 mg/kg (6.0 mg/m^2), 1× per day. • b) 2.0 mg/kg (6.0 mg/m^2), 2× per day on 2 successive days, followed by 5 treatment-free days. • c) 1.5 mg/kg (4.5 mg/m^2), 2× per day on 3 successive days, followed by 4 treatment-free days. • d) 1.7 mg/kg (5.1 mg/m^2), 2× per day on 3 successive days, followed by 4 treatment-free days.

[7] = HCT116; b) 2.5 mg/kg oral 2× per day on 2 successive days, followed by 5 treatment-free days

Structure (SMILES) | IC50 [1] | IC50 [2] | IC50 [3] | TGITW (tumor growth inhibition from tumor weights) ([4]; HCT116; a) 2.0 mg/kg oral 1× per day) | TGITW (tumor growth inhibition from tumor weights) [4, 7] | tumor regression observation [4, 7] | TGITW (tumor growth inhibition from tumor weights) ([4]; HCT116; c) 5.0 mg/kg oral 1× per day on 2 successive days, followed by 5 treatment-free days) | TGITA (tumor growth inhibition from tumor areas, measured on the day the vehicle group was ended) ([5]; NCI-H69; a) 2.0 mg/kg oral 1× per day) | TGITA (tumor growth inhibition from tumor areas) ([5]; NCI-H69; b) 2.5 mg/kg oral 2× per day on 2 successive days, followed by 5 treatment-free days) | TGITW (tumor growth inhibition from tumor weights) ([6]; NCI-H526; a) 2.0 mg/kg oral 1× per day) | TGITW (tumor growth inhibition from tumor weights) ([6]; NCI-H526; b) 2.0 mg/kg oral 2× per day on 2 successive days, followed by 5 treatment-free days) | TGITW (tumor growth inhibition from tumor weights) ([6]; NCI-H526; c) 1.5 mg/kg oral 2× per day on 3 successive days, followed by 4 treatment-free days) | TGITW (tumor growth inhibition from tumor weights) ([6]; NCI-H526; d) 1.7 mg/kg oral 2× per day on 3 successive days, followed by 4 treatment-free days)
C[C@@H](O)[C@@H](C)Oc1nc(Nc2ccc(S(C)(=N)=O)cc2)ncc1C(F)(F)F (single isomer, unassigned) [Example 2-SI-2] | 15 nM | 16 nM | 3 nM |  |  |  |  |  |  |  |  |  | 
C[C@@H](O)[C@@H](C)Oc1nc(Nc2ccc(S(C)(=N)=O)cc2)ncc1C(F)(F)F (mixture of isomers) [Example 2-SI-2, (RS)—S-(4-{[4-{[(1R,2R)-2-Hydroxy-1-methylpropyl]oxy}-5-(trifluoromethyl)pyrimidin-2-yl]-amino}phenyl)-S-methylsulfoximide] |  |  |  | 67% | 57% | signs of tumor regression | 83% | 99% | 110% | 98% | 72% | 79% | 88%
